According to the supplement of paper PMC11061612:

Columns and labels:
Experiment in all cases: Bliss excess, mean over the matrix (fraction); higher = more synergy
DSH1 (Bladder Carcinoma) = test system: DSH1 (Bladder Carcinoma)
Summary of the method: (§1)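 Bliss excess equals the observed combination effect minus the expected value EA + EB − EA·EB, where EA and EB are the effects of each agent alone. Combination Emax is the second-highest inhibition within the matrix. Inhibition was scaled from CellTiter-Glo 2.0 luminescence, with 0 set by vehicle wells and 1 by blank wells, after 72 hours of two-drug dosing of cells plated in 1536-well plates.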

[1] = test system: NALM-6 (B-Lymphoblastic Leukemia)
Summary of the method: as §1

[2] = test system: DMS-273 (Small Cell Lung Carcinoma)
Summary of the method: as §1

[3] = test system: U-266 (Plasma Cell Myeloma)
Summary of the method: as §1

[4] = test system: TE-5 (Esophageal Squamous Cell Carcinoma)
Summary of the method: as §1

[5] = test system: COR-L23 (Non-Small Cell Lung Carcinoma)
Summary of the method: as §1

[6] = test system: HPAC (Pancreatic Carcinoma)
Summary of the method: as §1

[7] = test system: LU-99A (Non-Small Cell Lung Carcinoma)
Summary of the method: as §1

[8] = test system: HCC2157 (Breast Carcinoma)
Summary of the method: as §1

[9] = test system: CTV-1 (T-Lymphoblastic Leukemia)
Summary of the method: as §1

[10] = test system: DB (B-Cell Non-Hodgkin's Lymphoma)
Summary of the method: as §1

[11] = test system: SW780 (Bladder Carcinoma)
Summary of the method: as §1

[12] = test system: DOV13 (Ovarian Carcinoma)
Summary of the method: as §1

SK-N-FI (Neuroblastoma) = test system: SK-N-FI (Neuroblastoma)
Summary of the method: as §1

[13] = test system: SW1088 (Low Grade Glioma)
Summary of the method: as §1

[14] = test system: SNU-C5 (Colorectal Carcinoma)
Summary of the method: as §1

[15] = test system: EM-2 (Chronic Myelogenous Leukemia)
Summary of the method: as §1

[16] = test system: SUIT-2 (Pancreatic Carcinoma)
Summary of the method: as §1

SN12C (Kidney Carcinoma) = test system: SN12C (Kidney Carcinoma)
Summary of the method: as §1

[17] = test system: HT-29 (Colorectal Carcinoma)
Summary of the method: as §1

Row | Structure (SMILES) | Bliss excess (DSH1 (Bladder Carcinoma)) | Bliss excess [1] | Bliss excess [2] | Bliss excess [3] | Bliss excess [4] | Bliss excess [5] | Bliss excess [6] | Bliss excess [7] | Bliss excess [8] | Bliss excess [9] | Bliss excess [10] | Bliss excess [11] | Bliss excess [12] | Bliss excess (SK-N-FI (Neuroblastoma)) | Bliss excess [13] | Bliss excess [14] | Bliss excess [15] | Bliss excess [16] | Bliss excess (SN12C (Kidney Carcinoma)) | Bliss excess [17]
1 | COc1cccc(OCCCN)c1-c1cc(Nc2cnc(C#N)cn2)n[nH]1 [Prexasertib] + CCc1c2c(nc3ccc(O)cc13)-c1cc3c(c(=O)n1C2)COC(=O)[C@]3(O)CC [SN-38] (first compound max 1 µM, 7x7, partner max 0.3 µM) | 0.0128 | -0.0555 | 0.0356 | -0.0412 | -0.0476 | 0.0388 | 0.0446 | -0.0593 | 0.0649 | -0.0461 | -0.0299 | -0.0348 | -0.0444 | 0.0093 | 0.0128 | -0.0375 | -0.0352 | -0.0582 | -0.0237 | -0.0022
2 | CN(CCO)CC[C@H](CSc1ccccc1)Nc1ccc(S(=O)(=O)NC(=O)c2ccc(N3CCC([C@@H](O)c4ccccc4-c4ccc(Cl)cc4)CC3)cc2)cc1S(=O)(=O)C(F)(F)F [AZD4320] + C1CN(CCC1(C(=O)N[C@@H](CCO)C2=CC=C(C=C2)Cl)N)C3=NC=NC4=C3C=CN4 [Capivasertib] (first compound max 1 µM, 7x7, partner max 3 µM) | -0.0038 | 0.0091 | -0.0782 | -0.0061 | -0.0068 | -0.0254 | -0.0571 | -0.0693 | 0.0191 | -0.0365 | -0.0196 | -0.053 | 0.0131 | -0.0158 | 0.0242 | -0.067 | 0.0261 | -0.054 | -0.0636 | -0.0331
3 | Cc1cc2ncnn2cc1Nc1ncc2c(n1)n(C1CCOCC1)c(=O)n2C [AZD7648] + CCN(CCO)CCCOc1ccc2c(Nc3cc(CC(=O)Nc4cccc(F)c4)[nH]n3)ncnc2c1 [AZD2811] (first compound max 10 µM, 7x7, partner max 1 µM) | 0.0145 | -0.0358 | -0.0368 | 0.0204 | -0.0237 | -0.023 | -0.032 | 0.0216 | 0.0278 | 0.0709 | 0.0438 | -0.018 | -0.0551 | 0.0094 | -0.0312 | 0.0093 | -0.073 | -0.0169 | -0.01 | 0.0227
4 | COc1nnc2ccc(N3CCC(c4ccc(OCCN5CCN(C)C(=O)[C@H]5C)cc4)CC3)nn12 [AZD5153] + C=CCn1c(=O)c2cnc(Nc3ccc(N4CCN(C)CC4)cc3)nc2n1-c1cccc(C(C)(C)O)n1 [AZD1775] (first compound max 1 µM, partner max 1 µM) | -0.132 | -0.0559 | -0.0377 | -0.0922 | -0.0148 | -0.0459 | -0.111 | -0.02 | -0.0734 | 0.0151 | -0.0996 | -0.0163 | -0.0561 | -0.105 | -0.0364 | -0.0291 | -0.0217 | 0.0152 | -0.128 | -0.0532
5 | Cn1cnc2c(F)c(Nc3ccc(Br)cc3Cl)c(C(=O)NOCCO)cc21 [Selumetinib] + C=CCn1c(=O)c2cnc(Nc3ccc(N4CCN(C)CC4)cc3)nc2n1-c1cccc(C(C)(C)O)n1 [AZD1775] (first compound max 10 µM, partner max 1 µM) | -0.0355 | 0.0755 | 0.0035 | 0.0598 | -0.0514 | 0.0308 | -0.0467 | -0.0624 | 0.0111 | 0.0039 | -0.193 | -0.0555 | -0.0631 | -0.0433 | -0.0468 | 0.0241 | -0.0618 | -0.0417 | -0.0228 | -0.0432
6 | CC(=O)c1c(C)c2cnc(Nc3ccc(N4CCNCC4)cn3)nc2n(C2CCCC2)c1=O [Palbociclib] + Cn1cnc2c(F)c(Nc3ccc(Br)cc3Cl)c(C(=O)NOCCO)cc21 [Selumetinib] (first compound max 10 µM, 7x7, partner max 10 µM) | -0.0834 | 0.0335 | -0.0393 | 0.0393 | -0.0511 | 0.0224 | 0.0461 | -0.0398 | -0.036 | 0.0496 | -0.0167 | -0.0008 | -0.233 | 0.016 | -0.0327 | -0.0615 | 0.0533 | 0.0481 | -0.0321 | 0.0336
7 | Cc1cc2ncnn2cc1Nc1ncc2c(n1)n(C1CCOCC1)c(=O)n2C [AZD7648] + O=C(c1cc(Cc2n[nH]c(=O)c3ccccc23)ccc1F)N1CCN(C(=O)C2CC2)CC1 [Olaparib] (first compound max 10 µM, 7x7, partner max 10 µM) | 0.0328 | -0.027 | 0.0268 | -0.0247 | -0.0431 | 0.0328 | -0.0261 | -0.0556 | 0.0073 | 0.0056 | -0.0564 | -0.0289 | -0.0556 | -0.0292 | -0.067 | -0.0064 | 0.0036 | 0.0151 | -0.0469 | -0.0265
8 | CC1(C)CCC(CN2CCN(c3ccc(C(=O)NS(=O)(=O)c4ccc(NCC5CCOCC5)c([N+](=O)[O-])c4)c(Oc4cnc5[nH]ccc5c4)c3)CC2)=C(c2ccc(Cl)cc2)C1 [Venetoclax] + C[C@@H]1COCCN1C2=NC(=NC(=C2)C3(CC3)[S@](=N)(=O)C)C4=C5C=CNC5=NC=C4 [AZD6738] (first compound max 1 µM, 7x7, partner max 10 µM) | -0.0662 | 0.0565 | -0.0779 | -0.0402 | -0.0623 | -0.0392 | -0.0736 | -0.0278 | 0.0204 | -0.0067 | 0.009 | -0.0299 | -0.001 | 0.0009 | -0.0327 | -0.0289 | -0.0272 | -0.0491 | -0.047 | -0.0215
9 | CN(CCO)CC[C@H](CSc1ccccc1)Nc1ccc(S(=O)(=O)NC(=O)c2ccc(N3CCC([C@@H](O)c4ccccc4-c4ccc(Cl)cc4)CC3)cc2)cc1S(=O)(=O)C(F)(F)F [AZD4320] + CCN(CCO)CCCOc1ccc2c(Nc3cc(CC(=O)Nc4cccc(F)c4)[nH]n3)ncnc2c1 [AZD2811] (first compound max 1 µM, 7x7, partner max 1 µM) | 0.0821 | 0.0868 | -0.0732 | 0.113 | 0.0379 | -0.0343 | 0.0486 | 0.0564 | 0.0907 | 0.0053 | 0.0983 | 0.028 | 0.0816 | -0.022 | -0.0659 | 0.0121 | -0.0327 | -0.0472 | -0.0249 | -0.0074
10 | CC(=O)c1c(C)c2cnc(Nc3ccc(N4CCNCC4)cn3)nc2n(C2CCCC2)c1=O [Palbociclib] + Cc1c2c(nn1C)CSCc1cc(n(C)n1)CSc1cc(c3ccccc3c1)OCCCc1c(C(=O)O)n(C)c3c-2c(Cl)ccc13 [AZD5991] (first compound max 10 µM, 7x7, partner max 1 µM) | -0.0748 | 0.0147 | -0.0565 | -0.019 | -0.0284 | -0.0472 | -0.0423 | -0.046 | -0.0106 | -0.0096 | 0.0577 | -0.0441 | -0.0567 | -0.0412 | 0.0212 | -0.0377 | -0.021 | -0.014 | -0.0358 | 0.0058
11 | COc1nnc2ccc(N3CCC(c4ccc(OCCN5CCN(C)C(=O)[C@H]5C)cc4)CC3)nn12 [AZD5153] + CC1(C)CCC(CN2CCN(c3ccc(C(=O)NS(=O)(=O)c4ccc(NCC5CCOCC5)c([N+](=O)[O-])c4)c(Oc4cnc5[nH]ccc5c4)c3)CC2)=C(c2ccc(Cl)cc2)C1 [Venetoclax] (first compound max 1 µM, 7x7, partner max 1 µM) | -0.0524 | -0.0678 | -0.0627 | -0.157 | -0.0087 | -0.0504 | -0.0507 | -0.0853 | 0.0328 | -0.0322 | -0.0114 | -0.0071 | -0.0751 | -0.0581 | -0.0439 | -0.077 | -0.0384 | -0.0769 | -0.0343 | -0.0288
12 | COc1cccc(OCCCN)c1-c1cc(Nc2cnc(C#N)cn2)n[nH]1 [Prexasertib] + CN(C)CCCOc1ccc(-c2ccc3ncc4c(c3c2)n(C2CCOCC2)c(=O)n4C)cn1 [AZD0156] (first compound max 1 µM, 7x7, partner max 1 µM) | -0.0243 | 0.0002 | -0.0183 | -0.032 | 0.0016 | 0.0229 | 0.0404 | 0.0172 | -0.0366 | -0.0108 | 0.0289 | -0.0232 | -0.0227 | -0.0168 | -0.0241 | -0.0292 | -0.0279 | -0.0055 | -0.0387 | -0.0343
13 | CN(CCO)CC[C@H](CSc1ccccc1)Nc1ccc(S(=O)(=O)NC(=O)c2ccc(N3CCC([C@@H](O)c4ccccc4-c4ccc(Cl)cc4)CC3)cc2)cc1S(=O)(=O)C(F)(F)F [AZD4320] + Cn1cnc2c(F)c(Nc3ccc(Br)cc3Cl)c(C(=O)NOCCO)cc21 [Selumetinib] (first compound max 1 µM, 7x7, partner max 3 µM) | -0.0405 | 0.0153 | -0.0768 | 0.13 | 0.0377 | 0.0645 | 0.0371 | 0.0878 | 0.0119 | 0.0708 | -0.0482 | 0.0441 | -0.114 | 0.0296 | 0.0246 | 0.0837 | 0.007 | 0.0126 | -0.0015 | 0.02
14 | CS(=O)(=O)CCNCc1ccc(-c2ccc3ncnc(Nc4ccc(OCc5cccc(F)c5)c(Cl)c4)c3c2)o1 [Lapatinib] + C[C@@H](Oc1cc(-c2cnn(C3CCNCC3)c2)cnc1N)c1c(Cl)ccc(F)c1Cl [Crizotinib] (first compound max 10 µM, 7x7, partner max 10 µM) | 0.0668 | -0.0612 | 0.0146 | -0.0574 | -0.0054 | -0.0296 | 0.0358 | -0.0205 | -0.0482 | 0.036 | -0.148 | -0.0364 | -0.0621 | -0.0365 | -0.0612 | -0.0301 | -0.0062 | 0.0051 | -0.017 | -0.0475
